Patent US5994398A, “Arylsulfonamides as phospholipase A2 inhibitors” (Elan Pharmaceuticals, Inc., priority 1996, dated 1999)

How the values were obtained:
[1] = tested on: Ca^+2 -independent PLA2; conditions: Ackermann et al. (1995); cited from earlier work
[2] = tested on: cPLA2; conditions: Street et al. (1993); cited from earlier work
[3] = tested on: Alzheimer's Disease patients; conditions: selected group of five AD patients; cited from earlier work
[4] = tested on: IL-1β and TNF-α release in cultured microglial cells; assay: Aβ1-40-induced cytokine (IL-1β and TNF-α) release in microglia, ELISA; format: cell-based, human; conditions: 50 μM Aβ1-40, cultured microglia, vs vehicle control
Procedure: Cultures of human cortical astrocytes and microglia were prepared using a modification of the procedure described for cortical neurons. Cortical tissue from fetuses of 16 to 20 weeks of gestation was washed 3 times in Ca^2+ /Mg^2+ free Hanks balanced salt solution (CMF HBSS) and then dissociated by repeated pipetting. The solution was brought to a final volume of 80 mL CMF HBSS for approximately 10 mL of tissue. DNase (Sigma) was added to a final concentration of 0.05 mg/mL. 20 mL of the solution was passed through one 100 μm nylon cell strained (Falcon). The cells were then centrifuged for 5 minutes at 200×G in an IEC Clinical Centrifuge and resuspended in a trypsin/EDTA solution (0.05% trypsin+0.53 mM EDTA in HBSS; Gibco) and incubated for 20 minutes at 37° C. (10 mL of trypsin was added per 2-3 mL of tissue). The trypsin was then inactivated by adding (MEM/FBS): Modified Eagle's Medium (MEM) containing 1% glucose, 1 mM sodium pyruvate, 1 mM glutamine, and supplemented with 10% fetal bovine serum (JRH). After adding a final concentration of 0.05 mg/mL DNase the cells were resuspended and then pelleted by centrifugation and resuspended in MEM/FBS. […]
Cultured microglial cells were treated with 50 μM of Aβ1-40 or vehicle only (Control). The levels of IL-1β and TNF-α released into the culture medium were determined by ELISA assay (R&D Systems) according to manufacturer's instructions. […]

Molecule	inhibition of Ca+2-independent PLA2 activity [1]	inhibition of cPLA2 [2]	effects on neuropathological progression [3]	symptomatic progression of AD [3]	stimulation of release of IL-1β and TNF-α into culture medium [4]
O=C1O/C(=C/Br)CCC1c1cccc2ccccc12 (stereo not drawn) [Bromoenol lactone]	capable of inhibiting	capable of inhibiting			
CCCCC/C=C\C/C=C\C/C=C\C/C=C\CCCC(=O)C(F)(F)F [arachidonyl trifluoromethyl ketone]	capable of inhibiting	capable of inhibiting			
COc1ccc2c(c1)c(CC(=O)O)c(C)n2C(=O)c1ccc(Cl)cc1 [indomethacin]			no effects on neuropathological progression were noted	allegedly useful in reducing symptomatic progression	
CCCCCCCCCCCCCCCC(=O)C(F)(F)F [palmitoyl trifluoromethyl ketone]	capable of inhibiting	capable of inhibiting			
Aβ1-40: Amyloid-β (Aβ) peptide 1-40, stock solutions 1 mM in sterile ddH2O					found to stimulate the release of IL-1β and TNF-α
